Test results: patent US12606544B2, “JAK1 selective kinase inhibitor” (DIZAL (JIANGSU) PHARMACEUTICAL CO., LTD., priority 2019, dated 2026)
pIC50: −log10 of the molar value. Where two headings read alike, the source gives them in different places.

How the values were obtained:
JAK1 = target: T1, JAK1 (Homo sapiens, UniProt P23458); assay: Lance Ultra Kinase Assay, recombinant JAK1; assay type: biochemical; conditions: 5 mM ATP
T1 construct: purchased Carna Biosciences
Method: (§1) Recombinant JAK1, JAK2, JAK3 and TYK2 purchased from Carna Biosciences. The inhibition potency of compounds against JAK1, JAK2, JAK3 and TYK2 was assessed using Lance Ultra Kinase Assay.
(§2) In brief, recombinant kinases were pre-incubated in the presence or absence of compound at room temperature for 15 minutes. The reaction was initiated by the addition of 5 mM ATP and substrate peptide which could be phosphorylated by kinases in the reaction. After 60 minutes incubation, the reaction was stopped by the addition of the detection reagent mix containing EDTA. The fluorescence was measured at 615 nm and 665 nm, respectively with excitation wavelength at 320 nm. The calculated signal ratio of 665 nm/615 nm is proportional to the kinase activity.

phosphorylation of STAT6 = assay: Cellular p-STAT6 assay, IL-13 stimulated THP-1 cells, flow cytometry; assay type: cell-based; conditions: IL-13 10 ng/ml, read-out: pSTAT6 IC50
Method: To detect phosphorylated STAT6 (pSTAT6), THP-1 cells were harvested by centrifugation at 250 g for 5 min and resuspended in assay medium (RPMI1640+10% FBS) to 2×10^5 cells/well. Test compounds were applied to assay plates in serial dilution from 1 μM to 0.3 nM in DMSO. THP-1 cells were incubated with serial diluted compounds for 60 min at room temperature, followed by stimulation of interleukin (IL-13, 10 ng/ml) for 30 min, fixed in Cytofix buffer (BD Biosciences), and permeabilized in 90% methanol on ice. PE anti-pSTAT6 (BD Biosciences) antibodies were stained for 60 min at room temperature before being analyzed by flow cytometry. In the assay the compounds were thus diluted and dose-response curves for inhibition of the signal determine the IC50 for the compounds.

TYK2 = target: T2, TYK2 (Homo sapiens, UniProt P29597); assay: Lance Ultra Kinase Assay, recombinant TYK2; assay type: biochemical; conditions: 5 mM ATP
T2 construct: purchased Carna Biosciences
Method: as §1, §2

JAK3 = target: T3, JAK3 (Homo sapiens, UniProt P52333); assay: Lance Ultra Kinase Assay, recombinant JAK3; assay type: biochemical; conditions: 5 mM ATP
T3 construct: purchased Carna Biosciences
T3 sequence (P52333 1-1124): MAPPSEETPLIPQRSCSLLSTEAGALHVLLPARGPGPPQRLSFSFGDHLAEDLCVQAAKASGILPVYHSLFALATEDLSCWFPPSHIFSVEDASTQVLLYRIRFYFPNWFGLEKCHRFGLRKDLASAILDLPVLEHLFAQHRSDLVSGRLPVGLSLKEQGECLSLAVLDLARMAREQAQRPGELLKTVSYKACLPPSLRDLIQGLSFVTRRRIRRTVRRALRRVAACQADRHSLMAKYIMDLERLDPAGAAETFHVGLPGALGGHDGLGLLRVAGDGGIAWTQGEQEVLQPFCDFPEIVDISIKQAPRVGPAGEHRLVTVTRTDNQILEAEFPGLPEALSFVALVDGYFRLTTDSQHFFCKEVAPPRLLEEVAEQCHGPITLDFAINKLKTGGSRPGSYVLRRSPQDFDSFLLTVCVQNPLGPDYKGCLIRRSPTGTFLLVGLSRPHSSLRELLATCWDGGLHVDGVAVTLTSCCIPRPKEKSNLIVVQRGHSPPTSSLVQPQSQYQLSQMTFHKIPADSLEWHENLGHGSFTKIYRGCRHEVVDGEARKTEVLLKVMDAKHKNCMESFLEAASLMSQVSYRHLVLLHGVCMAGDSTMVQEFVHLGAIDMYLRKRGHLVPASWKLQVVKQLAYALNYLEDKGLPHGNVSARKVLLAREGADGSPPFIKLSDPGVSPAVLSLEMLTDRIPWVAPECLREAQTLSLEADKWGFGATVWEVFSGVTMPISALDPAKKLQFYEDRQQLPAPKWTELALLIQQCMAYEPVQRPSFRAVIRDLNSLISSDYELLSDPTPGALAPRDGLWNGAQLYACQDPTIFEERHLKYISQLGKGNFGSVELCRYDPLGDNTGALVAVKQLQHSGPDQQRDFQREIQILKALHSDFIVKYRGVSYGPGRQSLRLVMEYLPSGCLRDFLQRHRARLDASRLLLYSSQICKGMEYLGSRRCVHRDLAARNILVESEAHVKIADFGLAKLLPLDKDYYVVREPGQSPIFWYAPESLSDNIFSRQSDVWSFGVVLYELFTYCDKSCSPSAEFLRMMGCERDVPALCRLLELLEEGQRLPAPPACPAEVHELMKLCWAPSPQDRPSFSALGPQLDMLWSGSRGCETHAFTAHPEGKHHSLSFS
Method: as §1, §2

JAK2 = target: T4, JAK2 (Homo sapiens, UniProt O60674); assay: Lance Ultra Kinase Assay, recombinant JAK2; assay type: biochemical; conditions: 5 mM ATP
T4 construct: purchased Carna Biosciences
Method: as §1, §2

[1] = Homo sapiens, THP-1, THP-1 cells

T2 sequence (P29597 whole entry): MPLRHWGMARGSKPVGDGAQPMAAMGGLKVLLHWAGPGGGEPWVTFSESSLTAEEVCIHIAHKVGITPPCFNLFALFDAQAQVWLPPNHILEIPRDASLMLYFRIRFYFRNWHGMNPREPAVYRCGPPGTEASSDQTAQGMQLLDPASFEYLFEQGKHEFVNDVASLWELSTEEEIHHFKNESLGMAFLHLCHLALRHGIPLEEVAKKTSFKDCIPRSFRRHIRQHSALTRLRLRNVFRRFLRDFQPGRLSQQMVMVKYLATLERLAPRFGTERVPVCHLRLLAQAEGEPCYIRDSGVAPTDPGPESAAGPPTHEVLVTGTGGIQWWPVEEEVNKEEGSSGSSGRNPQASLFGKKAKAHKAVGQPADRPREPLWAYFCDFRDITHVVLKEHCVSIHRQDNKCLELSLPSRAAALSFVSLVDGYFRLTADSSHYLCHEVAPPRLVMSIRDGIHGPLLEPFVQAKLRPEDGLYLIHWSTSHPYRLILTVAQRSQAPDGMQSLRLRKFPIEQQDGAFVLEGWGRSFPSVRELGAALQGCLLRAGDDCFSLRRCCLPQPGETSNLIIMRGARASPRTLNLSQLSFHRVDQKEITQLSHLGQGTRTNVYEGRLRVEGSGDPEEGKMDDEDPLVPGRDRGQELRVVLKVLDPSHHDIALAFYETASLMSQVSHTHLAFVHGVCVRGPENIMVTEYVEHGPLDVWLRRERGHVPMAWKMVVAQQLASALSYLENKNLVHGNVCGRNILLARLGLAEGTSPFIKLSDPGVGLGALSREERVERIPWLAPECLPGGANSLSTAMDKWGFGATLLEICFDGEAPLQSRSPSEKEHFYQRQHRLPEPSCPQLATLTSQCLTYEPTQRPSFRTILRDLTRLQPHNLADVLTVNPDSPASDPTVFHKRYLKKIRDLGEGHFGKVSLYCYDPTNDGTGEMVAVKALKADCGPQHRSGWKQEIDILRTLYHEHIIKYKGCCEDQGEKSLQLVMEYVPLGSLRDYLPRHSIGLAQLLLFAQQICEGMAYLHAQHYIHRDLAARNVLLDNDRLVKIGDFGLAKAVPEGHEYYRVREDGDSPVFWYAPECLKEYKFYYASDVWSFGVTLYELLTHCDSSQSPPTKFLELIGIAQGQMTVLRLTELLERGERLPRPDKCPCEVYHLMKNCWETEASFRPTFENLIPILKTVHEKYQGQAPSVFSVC
T4 sequence (O60674 whole entry): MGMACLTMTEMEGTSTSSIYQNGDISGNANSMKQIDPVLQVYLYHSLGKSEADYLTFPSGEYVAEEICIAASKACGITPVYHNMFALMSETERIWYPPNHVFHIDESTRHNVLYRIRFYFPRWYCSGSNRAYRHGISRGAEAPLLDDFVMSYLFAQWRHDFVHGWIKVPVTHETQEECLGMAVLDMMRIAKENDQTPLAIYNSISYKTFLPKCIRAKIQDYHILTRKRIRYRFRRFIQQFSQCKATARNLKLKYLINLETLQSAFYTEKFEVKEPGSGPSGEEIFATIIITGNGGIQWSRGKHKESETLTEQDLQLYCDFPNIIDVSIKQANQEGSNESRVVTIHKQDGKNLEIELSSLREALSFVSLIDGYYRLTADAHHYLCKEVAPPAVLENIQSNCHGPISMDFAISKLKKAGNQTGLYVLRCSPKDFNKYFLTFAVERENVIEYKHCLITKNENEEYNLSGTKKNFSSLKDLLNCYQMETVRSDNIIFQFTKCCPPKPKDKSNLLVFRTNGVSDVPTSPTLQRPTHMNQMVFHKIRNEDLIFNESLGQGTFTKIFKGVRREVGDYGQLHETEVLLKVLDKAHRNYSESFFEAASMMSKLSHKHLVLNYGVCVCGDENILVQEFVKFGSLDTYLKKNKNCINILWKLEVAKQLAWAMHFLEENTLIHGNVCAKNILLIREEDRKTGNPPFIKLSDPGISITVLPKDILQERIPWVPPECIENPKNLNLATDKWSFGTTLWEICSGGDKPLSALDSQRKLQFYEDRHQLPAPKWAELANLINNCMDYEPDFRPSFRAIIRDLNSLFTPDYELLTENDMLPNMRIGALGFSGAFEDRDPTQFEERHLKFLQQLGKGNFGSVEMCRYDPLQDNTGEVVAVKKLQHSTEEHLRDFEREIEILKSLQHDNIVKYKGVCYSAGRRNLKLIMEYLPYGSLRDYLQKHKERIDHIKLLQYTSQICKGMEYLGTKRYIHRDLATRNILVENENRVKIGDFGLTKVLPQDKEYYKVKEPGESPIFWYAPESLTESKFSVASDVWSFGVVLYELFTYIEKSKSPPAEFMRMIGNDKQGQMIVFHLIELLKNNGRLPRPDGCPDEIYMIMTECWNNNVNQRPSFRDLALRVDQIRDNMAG
T1 sequence (P23458 whole entry): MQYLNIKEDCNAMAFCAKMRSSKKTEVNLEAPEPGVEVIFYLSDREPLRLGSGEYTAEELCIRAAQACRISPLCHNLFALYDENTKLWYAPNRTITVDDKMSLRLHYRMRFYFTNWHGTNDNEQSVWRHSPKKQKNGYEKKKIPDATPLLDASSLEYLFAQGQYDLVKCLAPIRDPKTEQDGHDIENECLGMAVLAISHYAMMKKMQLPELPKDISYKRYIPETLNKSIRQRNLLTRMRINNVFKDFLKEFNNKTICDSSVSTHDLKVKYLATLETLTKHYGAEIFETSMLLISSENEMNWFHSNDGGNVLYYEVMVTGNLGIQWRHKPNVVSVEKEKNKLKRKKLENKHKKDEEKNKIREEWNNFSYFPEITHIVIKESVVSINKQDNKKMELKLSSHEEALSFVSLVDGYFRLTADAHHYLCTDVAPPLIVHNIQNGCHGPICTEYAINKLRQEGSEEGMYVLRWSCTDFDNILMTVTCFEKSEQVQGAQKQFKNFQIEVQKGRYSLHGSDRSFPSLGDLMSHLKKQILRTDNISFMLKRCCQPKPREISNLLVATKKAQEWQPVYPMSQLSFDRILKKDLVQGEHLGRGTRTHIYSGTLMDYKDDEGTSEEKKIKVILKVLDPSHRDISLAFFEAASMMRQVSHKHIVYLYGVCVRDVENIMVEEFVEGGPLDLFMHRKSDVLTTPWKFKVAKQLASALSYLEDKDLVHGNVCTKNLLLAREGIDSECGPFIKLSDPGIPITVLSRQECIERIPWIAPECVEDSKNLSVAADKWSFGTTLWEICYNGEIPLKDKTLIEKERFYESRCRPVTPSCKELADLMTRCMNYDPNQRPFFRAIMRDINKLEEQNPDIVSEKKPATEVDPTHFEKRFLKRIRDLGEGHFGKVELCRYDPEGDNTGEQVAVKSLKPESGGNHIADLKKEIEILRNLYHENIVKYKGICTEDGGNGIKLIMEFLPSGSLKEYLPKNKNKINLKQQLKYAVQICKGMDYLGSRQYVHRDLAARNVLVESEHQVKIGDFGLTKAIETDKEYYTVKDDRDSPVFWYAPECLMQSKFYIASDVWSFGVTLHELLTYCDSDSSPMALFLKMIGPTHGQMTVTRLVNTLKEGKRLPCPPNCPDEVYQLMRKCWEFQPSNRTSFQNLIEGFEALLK

Row | SMILES | pIC50 (JAK1) | pIC50 (phosphorylation of STAT6; [1]) | pIC50 (TYK2) | pIC50 (JAK3) | pIC50 (JAK2) | pIC50 (phosphorylation of STAT6; THP-1 cells)
1 | COC[C@H](C(=O)Nc1cccc2c(-c3nc(Nc4ccc5[nH]ncc5c4)ncc3F)c[nH]c12)N1CCN(C)CC1 [Example 32, (R)-N-(3-(2-((1H-indazol-5-yl)amino)-5-fluoropyrimidin-4-yl)-1H-indol-7-yl)-3-methoxy-2-(4-methylpiperazin-1-yl)propanamide] | 9.80 | 7.97 | 5.83 | 5.03 | 7.06 | 
2 | COC[C@H](C(=O)Nc1cccc2c(-c3nc(Nc4ccc(C(C)O)nc4)ncc3F)c[nH]c12)N1CCN(C)CC1 (single isomer, unassigned; isomer 2) [Example 9] | 9.60 | 8.19 | 6.48 | 5.00 | 7.70 | 
3 | COC[C@H](C(=O)Nc1cccc2c(-c3nc(Nc4ccc(OCC(=O)OC)nc4)ncc3F)c[nH]c12)N1CCN(C)CC1 [Example 14, methyl (R)-2-((5-((5-fluoro-4-(7-(3-methoxy-2-(4-methylpiperazin-1-yl)propanamido)-1H-indol-3-yl)pyrimidin-2-yl)amino)pyridin-2-yl)oxy)acetate] | 9.70 | 8.14 | 5.38 | < 5.00 | 6.47 | 
4 | COC[C@H](C(=O)Nc1cccc2c(-c3nc(Nc4cnn(-c5ccccc5C(=O)OC)c4)ncc3F)c[nH]c12)N1CCN(C)CC1 [Example 6, methyl (R)-2-(4-((5-fluoro-4-(7-(3-methoxy-2-(4-methylpiperazin-1-yl)propanamido)-1H-indol-3-yl)pyrimidin-2-yl)amino)-1H-pyrazol-1-yl)benzoate] | 9.38 | 8.22 | 5.33 | < 5.00 | 6.34 | 
5 | COC[C@H](C(=O)Nc1cccc2c(-c3nc(Nc4ccc5scnc5c4)ncc3F)c[nH]c12)N1CCN(C)CC1 [Example 26, (R)-N-(3-(2-(benzo[d]thiazol-5-ylamino)-5-fluoropyrimidin-4-yl)-1H-indol-7-yl)-3-methoxy-2-(4-methylpiperazin-1-yl)propanamide] | 10.15 | 8.04 | 5.90 | < 5.00 | 7.00 | 
6 | CNCCOc1ccc(Nc2ncc(F)c(-c3c[nH]c4c(NC(=O)[C@@H](COC)N5CCN(C)CC5)cccc34)n2)cn1 [Example 20, (R)-N-(3-(5-fluoro-2-((6-(2-(methylamino)ethoxy)pyridin-3-yl)amino)pyrimidin-4-yl)-1H-indol-7-yl)-3-methoxy-2-(4-methylpiperazin-1-yl)propanamide] | 9.19 | 8.10 | 5.62 | < 5.00 | 6.87 | 
7 | COC[C@H](C(=O)Nc1cccc2c(-c3nc(Nc4cnc(CO)c(C)c4)ncc3F)c[nH]c12)N1CCN(C)CC1 [Example 3, (R)-N-(3-(5-fluoro-2-((6-(hydroxymethyl)-5-methylpyridin-3-yl)amino)pyrimidin-4-yl)-1H-indol-7-yl)-3-methoxy-2-(4-methylpiperazin-1-yl)propanamide] | 9.72 | 8.35 | 6.81 | 5.11 | 8.40 | 
8 | CCOC(=O)Cc1ccc(Nc2ncc(F)c(-c3c[nH]c4c(NC(=O)[C@@H](COC)N5CCN(C)CC5)cccc34)n2)cn1 [Example 31, ethyl (R)-2-(5-((5-fluoro-4-(7-(3-methoxy-2-(4-methylpiperazin-1-yl)propanamido)-1H-indol-3-yl)pyrimidin-2-yl)amino)pyridin-2-yl)acetate] | 9.82 | 7.98 | 5.88 | < 5.00 | 6.66 | 
9 | COC[C@H](C(=O)Nc1cccc2c(-c3nc(Nc4ccc(C(C)O)nc4)ncc3F)c[nH]c12)N1CCN(C)CC1 (single isomer, unassigned; isomer 1) [Example 29, 5-fluoro-2-((6-(1-hydroxyethyl)pyridin-3-yl)amino)pyrimidin-4-yl)-1H-indol-7-yl)-3-methoxy-2-(4-methylpiperazin-1-yl)propanamide (isomer 1)] | 9.51 |  | 6.03 | < 5.00 | 7.13 | 8.01
10 | COC[C@H](C(=O)Nc1cccc2c(-c3nc(Nc4cnc5cn[nH]c5c4)ncc3F)c[nH]c12)N1CCN(C)CC1 [Example 19, (R)-N-(3-(2-((1H-pyrazolo[4,3-b]pyridin-6-yl)amino)-5-fluoropyrimidin-4-yl)-1H-indol-7-yl)-3-methoxy-2-(4-methylpiperazin-1-yl)propanamide] | 9.57 | 8.11 |  | < 5.00 | 6.67 | 

Further lines, results first:

Row | pIC50 (JAK1) | pIC50 (phosphorylation of STAT6; [1]) | pIC50 (TYK2) | pIC50 (JAK3) | pIC50 (JAK2) | pIC50 (phosphorylation of STAT6; THP-1 cells) | SMILES
11 | 9.66 | 7.68 | 5.91 | 5.27 | 7.15 |  | CNC(=O)COc1cncc(Nc2ncc(F)c(-c3c[nH]c4c(NC(=O)[C@@H](COC)N5CCN(C)CC5)cccc34)n2)c1 [Example 68, (R)-N-(3-(5-fluoro-2-((5-(2-(methylamino)-2-oxoethoxy)pyridin-3-yl)amino)pyrimidin-4-yl)-1H-indol-7-yl)-3-methoxy-2-(4-methylpiperazin-1-yl)propanamide]
12 | 9.57 | 7.88 | < 5.00 | < 5.00 | 6.83 |  | COC[C@H](C(=O)Nc1cccc2c(-c3nc(Nc4ccc5c(C(=O)OC)n[nH]c5c4)ncc3F)c[nH]c12)N1CCN(C)CC1 [Example 44, methyl (R)-6-((5-fluoro-4-(7-(3-methoxy-2-(4-methylpiperazin-1-yl)propanamido)-1H-indol-3-yl)pyrimidin-2-yl)amino)-1H-indazole-3-carboxylate]
13 | 9.37 | 7.82 | 5.66 | < 5.00 | 6.44 |  | COC[C@H](C(=O)Nc1cccc2c(-c3nc(Nc4ccc(NC(=O)OC)nc4)ncc3F)c[nH]c12)N1CCN(C)CC1 [Example 52, methyl (R)-(5-((5-fluoro-4-(7-(3-methoxy-2-(4-methylpiperazin-1-yl)propanamido)-1H-indol-3-yl)pyrimidin-2-yl)amino)pyridin-2-yl)carbamate]
14 | 9.96 | 7.84 | 6.11 | < 5.00 | 6.92 |  | COC[C@H](C(=O)Nc1cccc2c(-c3nc(Nc4ccc5ncoc5c4)ncc3F)c[nH]c12)N1CCN(C)CC1 [Example 50, (R)-N-(3-(2-(benzo[d]oxazol-6-ylamino)-5-fluoropyrimidin-4-yl)-1H-indol-7-yl)-3-methoxy-2-(4-methylpiperazin-1-yl)propanamide]
15 | 9.74 | 7.95 | 6.35 | < 5.00 | 7.92 |  | COC[C@H](C(=O)Nc1cccc2c(-c3nc(Nc4cnc(CO)c(OC)c4)ncc3F)c[nH]c12)N1CCN(C)CC1 [Example 34, (R)-N-(3-(5-fluoro-2-((6-(hydroxymethyl)-5-methoxypyridin-3-yl)amino)pyrimidin-4-yl)-1H-indol-7-yl)-3-methoxy-2-(4-methylpiperazin-1-yl)propanamide]
